Read-outs that look alike come from different tables or passages of the source. Numbered stars: 1 amine (or outer) side, 2 acyl side, 3 side chain; on linkers, the order of the positions; unused ones are H or OH. Square brackets hold non-standard residues; d marks the D form. Peptide text beside a SMILES is read from it. * marks the point of attachment. Phenylacetyl(4-CF3) = O=C(Cc1ccc(C(F)(F)F)cc1)*; Propanoyl(3-(4-F-phenyl)) = O=C(CCc1ccc(F)cc1)*; Propanoyl(3-(4-Cl-Ph)) = O=C(CCc1ccc(Cl)cc1)*; X10 = O=C([C@@H](Cc1cncs1)N[*:1])[*:2]; d1Nal = N[C@H](Cc1cccc2ccccc12)C(=O)O; d(hCit) = NC(=O)NCCCC[C@@H](N)C(=O)O; Lys(iPr) = CC(C)NCCCC[C@H](N)C(=O)O; NMeY = CN[C@@H](Cc1ccc(O)cc1)C(=O)O; hhPhe = N[C@@H](CCCc1ccccc1)C(=O)O; Pyrazinecarbonyl = O=C(c1cnccn1)*; Benzoyl(4-F) = O=C(c1ccc(F)cc1)*; d3Pal = N[C@H](Cc1cccnc1)C(=O)O; Morpholide = C1CN(*)CCO1; Orn = NCCC[C@H](N)C(=O)O; CO = O=C([*:1])[*:2]; For = O=C*
Biological target: T1, LHRH receptors (Rattus norvegicus, UniProt P30969)
T1 construct: Pituitary membranes containing LHRH receptors are prepared in batches from quick-frozen rat pituitaries; tissue Hilltop Labs; host or cells: rat pituitary membranes
T1 sequence (P30969 1-327): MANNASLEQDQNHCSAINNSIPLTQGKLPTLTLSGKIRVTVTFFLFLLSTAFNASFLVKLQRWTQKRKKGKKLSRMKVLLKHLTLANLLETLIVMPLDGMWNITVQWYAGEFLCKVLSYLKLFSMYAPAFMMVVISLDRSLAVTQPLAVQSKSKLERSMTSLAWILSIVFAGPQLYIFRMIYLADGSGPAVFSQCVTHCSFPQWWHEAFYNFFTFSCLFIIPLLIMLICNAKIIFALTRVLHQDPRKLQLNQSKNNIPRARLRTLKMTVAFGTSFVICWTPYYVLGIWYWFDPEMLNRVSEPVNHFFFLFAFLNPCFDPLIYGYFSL
Assay: Receptor Binding (radioligand receptor binding assay)
Conditions: rat pituitary membranes, 2 hours at 4° C., read-out: Receptor Binding pkI (converted)

[1] = table 3, radioiodinated [D-Leu^6 -des Gly^10 ]-LHRH ethyl amide 50 pM

Row | Compound | Ki (table 4, radioligand 50 pM) [nM] | Ki [1] [nM]
1 | CCNC(=O)[C@@H]1CCCN1C(=O)[C@H](CCCNC(=N)N)NC(=O)[C@H](CC(C)C)NC(=O)[C@H](Cc1c[nH]c2ccccc12)NC(=O)[C@H](Cc1ccc(O)cc1)NC(=O)[C@H](CO)NC(=O)[C@H](Cc1c[nH]c2ccccc12)NC(=O)Cc1ccc(C(F)(F)F)cc1 [Compound 106, (3-9)[N-(4-Trifluoromethylphenyl)acetyl -Trp^3,6 -Pro^9 NHEt]LHRH] ({Phenylacetyl(4-CF3)}-WSYWLRP-NHEt) |  | 0.851
2 | CCNC(=O)[C@@H]1CCCN1C(=O)[C@H](CCCNC(=N)N)NC(=O)[C@H](CC(C)C)NC(=O)[C@@H](Cc1c[nH]c2ccccc12)NC(=O)[C@H](Cc1ccc(O)cc1)NC(=O)[C@H](CO)NC(=O)[C@H](Cc1c[nH]c2ccccc12)NC(=O)[C@H](Cc1c[nH]cn1)NC(=O)N1CCOCC1 [Compound 109, (2-9)[N-(N-alpha-Morpholinocarbonyl)-His^2 -D-Trp^6 -Pro^9 NHEt]LHRH] ({Morpholide-CO}-HWSY[dW]LRP-NHEt) |  | 0.316
3 | COc1ccc(C[C@H](NC(=O)[C@H](CO)NC(=O)[C@@H](Cc2cccc3ccccc23)NC(=O)CCc2ccc(F)cc2)C(=O)N[C@H](CCCCNC(=O)c2cnccn2)C(=O)N[C@@H](CC(C)C)C(=O)N[C@@H](CCCCNC(C)C)C(=O)N2CCC[C@H]2C(=O)N[C@H](C)C(N)=O)cc1 [Compound 203, (3-10)[N-(3-(4-Fluorophenyl)propionyl)-D-1-Nal^3 -Tyr^5 (OMe)-D-Lys^6 (N-epsilon-2-carbonylpyrazinyl)-Lys^8 (N-epsilon-isopropyl)-D-Ala^10]LHRH] ({Propanoyl(3-(4-F-phenyl))}-[d1Nal]SY(Me)[dK](Pyrazinecarbonyl)L[Lys(iPr)]P[dA]-NH2) | 0.0209 | 
4 | CCNC(=O)[C@@H]1CCCN1C(=O)[C@H](CCCNC(=N)N)NC(=O)[C@H](CC(C)C)NC(=O)[C@@H](Cc1c[nH]c2ccccc12)NC(=O)[C@H](Cc1ccc(O)cc1)NC(=O)[C@H](CO)NC(=O)[C@@H](Cc1ccc(O)cc1)NC(=O)[C@H](Cc1ccccc1)NC(=O)N1CCOCC1 [Compound 108, (2-9)[N-(N-alpha-Morpholinocarbonyl)-Phe^2 -D-Tyr^3 -D-Trp^6 -Pro^9 NHEt]LHRH] ({Morpholide-CO}-F[dY]SY[dW]LRP-NHEt) |  | 0.182
5 | CCNC(=O)[C@@H]1CCCN1C(=O)[C@H](CCCNC(=N)N)NC(=O)[C@H](CC(C)C)NC(=O)[C@@H](Cc1c[nH]c2ccccc12)NC(=O)[C@H](Cc1ccc(O)cc1)NC(=O)[C@H](CO)NC(=O)[C@H](Cc1c[nH]c2ccccc12)NC(=O)CCc1ccc(Cl)cc1 [Compound 98, (3-9)[N-(3-(4-Chlorophenyl)propionyl) -Trp^3 -D-Trp^6 -Pro^9 NHEt]LHRH] ({Propanoyl(3-(4-Cl-Ph))}-WSY[dW]LRP-NHEt) |  | 0.0525
6 | CC(C)C[C@H](NC(=O)[C@@H](Cc1cccnc1)NC(=O)[C@H](Cc1ccc(O)cc1)NC(=O)[C@H](CO)NC(=O)[C@@H](Cc1cccc2ccccc12)NC(=O)CCc1ccc(F)cc1)C(=O)N[C@@H](CCCCNC(C)C)C(=O)N1CCC[C@H]1C(=O)N[C@H](C)C(N)=O [Compound 201, (3-10)[N-(3-(4-Fluorophenyl)propionyl)-D-1-Nal^3 -D-3Pal^6 -Lys^8 (N-epsilon-isopropyl)-D-Ala^10]LHRH] ({Propanoyl(3-(4-F-phenyl))}-[d1Nal]SY[d3Pal]L[Lys(iPr)]P[dA]-NH2) | 0.0204 | 
7 | CC(C)C[C@H](NC(=O)[C@@H](Cc1cn(C=O)c2ccccc12)NC(=O)[C@H](Cc1ccc(O)cc1)NC(=O)[C@H](CO)NC(=O)[C@@H](Cc1cn(C=O)c2ccccc12)NC(=O)CCc1ccc(F)cc1)C(=O)N[C@@H](CCCNC(=N)N)C(=O)N1CCC[C@H]1C(=O)N[C@H](C)C(N)=O [Compound 123, N-3-(4-Fluorophenyl)propionyl-D-Trp-(N-indole-formyl)-Ser -Tyr-D-Trp(N-indole-formyl)-Leu-Arg-Pro-D-AlaNH2] ({Propanoyl(3-(4-F-phenyl))}-[dW](For)SY[dW](For)LRP[dA]-NH2) |  | 0.331
8 | CCNC(=O)[C@@H]1CCCN1C(=O)[C@H](CCCN=C(N)N)NC(=O)[C@H](CC(C)C)NC(=O)[C@@H](Cc1ccc(O)cc1)NC(=O)[C@H](Cc1ccc(O)cc1)NC(=O)[C@H](CO)NC(=O)[C@@H](Cc1c[nH]c2ccccc12)NC(=O)CCc1ccc(F)cc1 [Compound 150, (3-9)[N-(3-(4-Fluorophenyl)propionyl) -D-Trp^3 -D-Tyr^6 -Pro^9 NHEt]LHRH] ({Propanoyl(3-(4-F-phenyl))}-[dW]SY[dY]LRP-NHEt) | 0.0102 | 

Second part, the compound after the results:

Row | Ki (table 4, radioligand 50 pM) [nM] | Ki [1] [nM] | Compound
9 | 2.88 |  | CC(C)C[C@H](NC(=O)[C@@H](CCCCN)NC(=O)[C@H](Cc1ccc(O)cc1)N(C)C(=O)[C@H](CCCc1ccccc1)NC(=O)[C@@H](Cc1cccc2ccccc12)NC(=O)CCc1ccc(F)cc1)C(=O)N[C@@H](CCCNC(=N)N)C(=O)N1CCC[C@H]1C(=O)N[C@H](C)C(N)=O [Compound 176, (3-10)[N-(3-(4-Fluorophenyl)propionyl)-D-1-Nal^3-hhPhe^4 -NMeTyr^5 -D-Lys^6 -D-Ala^10]LHRH] ({Propanoyl(3-(4-F-phenyl))}-[d1Nal][hhPhe][NMeY][dK]LRP[dA]-NH2)
10 | 0.0479 |  | CCNC(=O)[C@@H]1CCCN1C(=O)[C@H](CCCNC(=N)N)NC(=O)[C@H](CC(C)C)NC(=O)[C@@H](Cc1c[nH]c2ccccc12)NC(=O)[C@H](Cc1ccc(O)cc1)N(C)C(=O)[C@H](CO)NC(=O)[C@@H](Cc1cccc2ccccc12)NC(=O)CCc1ccc(F)cc1 [Compound 157, (3-9)[N-(3-(4-Fluorophenyl)propionyl)-D -1-Nal^3 -NMeTyr^5 -D-Trp^6 -Pro^9 NHEt]LHRH] ({Propanoyl(3-(4-F-phenyl))}-[d1Nal]S[NMeY][dW]LRP-NHEt)
11 | 0.00331 |  | COc1ccc(C[C@H](NC(=O)[C@H](CO)NC(=O)[C@@H](Cc2cccc3ccccc23)NC(=O)CCc2ccc(F)cc2)C(=O)N[C@H](CCCCN)C(=O)N[C@@H](CC(C)C)C(=O)N[C@@H](CCCNC(=N)N)C(=O)N2CCC[C@H]2C(=O)N[C@H](C)C(N)=O)cc1 [Compound 188, (3-10)[N-(3-(4-Fluorophenyl)propionyl)-D-1-Nal^3 -Tyr^5 (OMe)-D-Lys^6 -D-Ala^10]LHRH] ({Propanoyl(3-(4-F-phenyl))}-[d1Nal]SY(Me)[dK]LRP[dA]-NH2)
12 | 0.339 |  | CC(=O)NCCC[C@H](NC(=O)c1ccc(F)cc1)C(=O)N[C@H](Cc1cccc2ccccc12)C(=O)N[C@@H](CO)C(=O)N(C)[C@@H](Cc1ccc(O)cc1)C(=O)N[C@H](Cc1cncs1)C(=O)N[C@@H](CC(C)C)C(=O)N[C@@H](CCCCNC(C)C)C(=O)N1CCC[C@H]1C(=O)N[C@H](C)C(N)=O [Compound 215, N-alpha-(4-Fluorobenzoyl)-Orn(N-delta-acetyl)-D-1-Nal-Ser-NMeTyr-D-Thiaz-Leu-Lys(N-epsilon-isopropyl)-Pro-D-AlaNH2] ({Benzoyl(4-F)}-[Orn](Ac)[d1Nal]S[NMeY][X10]L[Lys(iPr)]P[dA]-NH2)
13 | 0.00955 |  | CC(C)C[C@H](NC(=O)[C@@H](CCCCNC(N)=O)NC(=O)[C@H](Cc1ccc(O)cc1)N(C)C(=O)[C@H](CO)NC(=O)[C@@H](Cc1cccc2ccccc12)NC(=O)CCc1ccc(F)cc1)C(=O)N[C@@H](CCCNC(=N)N)C(=O)N1CCC[C@H]1C(=O)N[C@H](C)C(N)=O [Compound 178, (3-10)[N-(3-(4-Fluorophenyl)propionyl)-D-1-Nal^3 -NMeTyr^5 -D-Hcit^6 -D-Ala^10]LHRH] ({Propanoyl(3-(4-F-phenyl))}-[d1Nal]S[NMeY][d(hCit)]LRP[dA]-NH2)
